Test [1] concerns the target T1, hsMTHFD2 (Homo sapiens, UniProt P13995).
T1 construct: His-tag (vector pHis-TEV); made in house; host or cells: E. coli BL21 (DE3)
T1 sequence (P13995 36-350): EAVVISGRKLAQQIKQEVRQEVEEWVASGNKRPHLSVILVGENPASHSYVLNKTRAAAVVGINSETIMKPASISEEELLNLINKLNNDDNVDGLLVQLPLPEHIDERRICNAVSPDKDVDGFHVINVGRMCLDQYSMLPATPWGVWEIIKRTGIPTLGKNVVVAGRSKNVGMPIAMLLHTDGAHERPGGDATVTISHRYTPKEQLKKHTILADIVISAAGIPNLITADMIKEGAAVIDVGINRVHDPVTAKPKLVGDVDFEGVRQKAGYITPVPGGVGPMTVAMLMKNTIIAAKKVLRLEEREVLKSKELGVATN
Nature of the test: FoID cyclohydrolase (CYH) enzyme assay. The format is biochemical. How it is done: (§1) (6R,S)-5,10-Methylene-5,6,7,8-tetrahydrofolic acid ((6R,S)-5,10-CH2-THF), calcium salt and (6R,S)-5,10-Methenyl-5,6,7,8-tetrahydrofolic acid ((6R,S)-5,10-CH=THF) chloride were purchased from Schircks Laboratories (Bauma, Switzerland) and were used as substrates for FoID dehydrogenase and cyclohydrolase enzyme assays, respectively. Only the R-isomer, which accounts for 50% of (6R,S)-5,10-CH2-THF and (6R,S)-5,10-CH=THF, respectively, is used by the enzyme. (6R,S)-5,10-CH2-THF was dissolved in N2-spargeled basic buffer (50 mM Tris-HCl (pH 8.0), 100 mM β-mercaptoethanol) as described by Sah and Varshney, 2015a (6R,S)-5,10-CH=THF was first dissolved in DMSO as a 100 mM stock solution.
(§2) Because FoID is a bifunctional enzyme, dehydrogenase and cyclohydrolase activities were determined for FoID enzyme kinetics, respectively. The dehydrogenase activity of FoID was assayed for its substrate 5,10-CH2-THF and cofactor NADP+ (in the case of MTHFD2, NAD+ was used as cofactor) based on monitoring the formation of 5,10-CH=THF while the cyclohydrolase activity of FoID was determined for its substrate 5,10-CH=THF by monitoring the hydrolysis of 5,10-CH2-THF. The enzyme kinetics for the dehydrogenase activity of all FoIDs except hsMTHFD1_DC were determined at 30° C. in 50 mM Tris-HCl (pH 7.5), 30 mM β-mercaptoethanol. The hsMTHFD1_DC dehydrogenase activity was measured in 25 mM MOPS (pH 7.3), 30 mM β-mercaptoethanol at 30° C. To measure the enzyme kinetics constants for 5,10-CH2-THF, for example in the case of ecFoID, the NADP concentration was fixed at 1 mM and the concentration of 5,10-CH2-THF varied from 5 μM to 1,500 μM (R-isomer). Similarly, to measure the kinetic constants of ecFoID for NADP+, the concentration of 5,10-CH2-THF (R-isomer) was fixed at 1 mM and the concentration of NADP+ varied from 10 μM to 1,500 μM. For different FoIDs, the varied concentration range of substrates could be different. […] To monitor the formation of 5,10-CH=THF, the absorbance of the reaction mixture was monitored at 350 nm in micro UV cuvettes (BRAND, Essex, Connecticut, USA). The concentration of 5,10-CH=THF produced in the reaction was determined using an extinction co-efficient of 0.0249 μM-1 cm-1. […] The consumption of 5,10-CH=THF was measured by recording the absorbance of the reactions at 355 nm using the TECAN Infinite 200 PRO equipped with a monochromator. […] The inhibition constants (Ki) of carolacton on FoID were determined by measuring the apparent Km values when adding certain amounts of carolacton to the enzyme reactions. […] To compare the inhibition effects of carolacton between the different FoIDs, the half maximal inhibitory concentration (IC50) of carolacton on the same amount of enzyme was determined for FoIDs involved in this study. […]

In test [2] the target is T2, hsMTHFD1 DC301 (Homo sapiens, UniProt P11586).
T2 construct: We therefore expressed and purified hsMTHFD2 and hsMTHFD1_DC to test them biochemically; His-tag (vector pHis-TEV); made in house; host or cells: E. coli BL21 (DE3)
T2 sequence (P11586 2-291 limits assumed): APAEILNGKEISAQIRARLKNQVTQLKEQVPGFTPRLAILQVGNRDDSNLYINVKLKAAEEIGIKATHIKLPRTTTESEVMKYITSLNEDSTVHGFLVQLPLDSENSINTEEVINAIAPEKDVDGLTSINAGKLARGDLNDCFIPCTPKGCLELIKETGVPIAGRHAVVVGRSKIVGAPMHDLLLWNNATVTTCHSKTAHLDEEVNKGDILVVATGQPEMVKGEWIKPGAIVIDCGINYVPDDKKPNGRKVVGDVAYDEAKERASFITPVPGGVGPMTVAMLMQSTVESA
The test can be described thus: FoID cyclohydrolase (CYH) enzyme assay. The format is biochemical. The procedure: as §1, §2

Test [3] has as its system E. coli ToIC. The test can be described thus: Minimum inhibition concentration (MIC). The format is cell-based. Particulars: Escherichia coli, read-out: minimum inhibition concentration (MIC). An excerpt: First, the minimum inhibition concentration (MIC) of carolacton on E. coli ToIC strain has been determined. We started to develop the resistant mutants on CASO agar plates supplemented with 4× the MIC concentration of carolacton as selection pressure. Different numbers of E. coli ToIC cells from 1×10^7 to 10^9 were spread on caso agar plate with carolacton, respectively. After 7 days, E. coli ToIC colonies, which were resistant to carolacton, started to form on the agar plates. The mutants picked were inoculated in liquid MHB medium supplemented with carolacton.

Where [4] appears, read: 5 nM enzyme, read-out: IC50, carolacton inhibition on CYH activity.
Where [5] appears, read: vs 5,10-CH=THF, read-out: Ki (5,10-CH═THF), carolacton inhibition on CYH activity.

Values after ≈ are worked out from the molar mass of the structure shown.

One may read the IC50 as the concentration needed to halve the response being measured. One may read the Ki as a measure of affinity in units of concentration, obtained from inhibition or displacement. Consider `CO[C@H](CC(=O)O)[C@@H](C)C(=O)[C@H](C)/C=C(\C)[C@H]1OC(=O)[C@H](O)[C@H](O)/C=C/[C@H](C)CCC[C@@H]1C` [Carolacton, carolacton], for which the figures for the IC50 in test [1] (setting [4]) and in test [2] (setting [4]) were 85.7 nM and 19.4 nM, respectively. The figures for the Ki in test [1] (setting [5]) and in test [2] (setting [5]) were 12.7 nM and 20.6 nM, respectively. For the same compound, the MIC in test [3] amounted to 0.125 µg/mL (≈ 0.267 µM).

These data come from patent US11357752B2, “Carolacton and derivatives thereof for use in the treatment of cell proliferation disorders” (Helmholtz-Zentrum für Infektionsforschung GmbH, priority 2017, dated 2022).
